According to patent US6700013B2, “Tricyclic fused heterocycle compounds, process for preparing the same and use thereof” (Nippon Suisan Kaisha, Ltd., priority 1999, dated 2004):

| melting point | SMILES |
| --- | --- |
| 105.6 to 106.8 °C | CCCCc1ccc2c(c1)CC(=O)c1c(O)cc(O)cc1O2 [Example 50] |
| 271.9 to 273.3 °C | CCC1C(=O)c2cc(O)c(O)cc2Sc2cc(-c3ccc(C)cc3)ccc21 (stereo not drawn) [Example 160] |
| 228.4 to 230.8 °C | CC(=O)c1cc(-c2ccc3c(c2)CC(=O)c2c(O)cc(O)cc2O3)ccc1C [Example 67] |
| 155.1 to 158.7 °C | CCCCC(=O)c1ccc2c(c1)CCc1c(O)cc(O)cc1S2 [Example 131] |
| 142.2 to 143.5 °C | O=C(c1ccc2c(c1)CCc1c(O)cc(O)cc1S2)C1CC1 [Example 135] |
| 150.2 to 152.6 °C | Oc1cc(O)c2c(c1)Oc1cc(-c3cccc(C(F)(F)F)c3)ccc1CC2 [Example 117] |
| 243.5 to 248.4 °C (dec.) | O=C1Cc2cc(-c3ccco3)ccc2Sc2cc(O)cc(O)c21 [Example 84] |
| 124 to 125.8 °C | O=C1Cc2cc(-c3ccccc3)ccc2Oc2cc(O)c(O)c(O)c21 [Example 88] |
| 179.2 to 181.1 °C | CCC1C(=O)c2cc(O)c(O)cc2Sc2cc(-c3ccccc3C)ccc21 (stereo not drawn) [Example 158] |
| > 200 °C (dec.) | Nc1cccc(-c2ccc3c(c2)CC(=O)c2c(O)cc(O)cc2S3)c1 [Example 83] |
| 198.6 to 201.1 °C | Oc1cc(O)c2c(c1)Oc1cc(-c3ccco3)ccc1CC2 [Example 115] |
| 268.4 to 268.5 °C | O=C1Cc2cc(-c3cc4ccccc4o3)ccc2Oc2cc(O)cc(O)c21 [Example 94] |
| 175.1 to 178.3 °C | Oc1cc2c(c(O)c1O)CCc1cc(-c3ccccc3)ccc1O2 [Example 125] |
| 155.4 to 159.4 °C | CCC1C(=O)c2cc(O)c(O)cc2Sc2cc(-c3ccc(O)cc3)ccc21 (stereo not drawn) [Example 177] |
| 293.2 °C (dec.) | CCC1C(=O)c2cc(O)c(O)cc2Sc2cc(-c3cc4ccccc4o3)ccc21 (stereo not drawn) [Example 168] |
| 208.9 to 213.6 °C | O=C1Cc2cc(-c3cccc(Cl)c3)ccc2Oc2cc(O)cc(O)c21 [Example 61] |
| 119.8 to 121.7 °C | CCCCC(=O)c1ccc2c(c1)CCc1c(O)cc(O)cc1O2 [Example 130] |
| 238.7 to 241.7 °C | CCC1C(=O)c2cc(O)c(O)cc2Sc2ccc(-c3ccco3)cc21 (stereo not drawn) [Example 159] |
| 182.3 to 184.4 °C | CSc1ccc2c(c1)Sc1cc(O)cc(O)c1C(=O)C2 [Example 19] |
| 277.4 to 279.2 °C | CCC1C(=O)c2cc(O)c(O)cc2Sc2ccc(-c3cc4ccccc4o3)cc21 (stereo not drawn) [Example 161] |
| 208.8 to 210.2 °C | Cc1ccc(-c2ccc3c(c2)Oc2cc(O)cc(O)c2C(=O)C3)cc1 [Example 71] |

| melting point | SMILES |
| --- | --- |
| 106.9 to 108.1 °C | CCCCc1ccc2c(c1)CC(=O)c1c(O)cc(O)cc1S2 [Example 53] |
| 240.1 to 246.1 °C | O=C1Cc2cc(-c3cccs3)ccc2Sc2cc(O)cc(O)c21 [Example 76] |
| > 250 °C | O=C1Cc2cc(-c3ccc(O)c(O)c3)ccc2Oc2cc(O)cc(O)c21 [Example 93] |
| 199.6 to 201.8 °C | O=[N+]([O-])c1cccc(-c2ccc3c(c2)CCc2c(O)cc(O)cc2O3)c1 [Example 120] |
| 232 to 236.9 °C | CSc1ccc2c(c1)Sc1cc(O)c(O)cc1C(=O)C2 [Example 23] |
| 285.7 °C (dec.) | O=C1Cc2cc(Br)ccc2Sc2cc(O)c(O)cc21 [Example 22] |
| 151.7 to 153.7 °C | CC(C)(C)c1ccc2c(c1)CCc1c(O)cc(O)cc1S2 [Example 137] |
| 251.4 to 255.5 °C (dec.) | CCC1C(=O)c2cc(O)c(O)cc2Sc2ccc(-c3cc4ccccc4s3)cc21 (stereo not drawn) [Example 172] |
| 242.9 to 248.4 °C | CCC1C(=O)c2cc(O)c(O)cc2Sc2cc(-c3ccco3)ccc21 (stereo not drawn) [Example 153] |
| > 250 °C (dec.) | O=C1Cc2cc(-c3ccc(-c4ccccc4)cc3)ccc2Oc2cc(O)cc(O)c21 [Example 79] |
| 170.3 to 172 °C | O=C1Cc2cc(-c3ccccc3)ccc2Oc2cc(O)cc(O)c21 [Example 54] |
| 67.5 to 68.3 °C | O=C1c2c(O)cc(O)cc2Sc2ccccc2C1Cc1ccccc1 (stereo not drawn) [Example 40] |
| 244.3 to 250.7 °C | O=C1Cc2cc(-c3cccc([N+](=O)[O-])c3)ccc2Oc2cc(O)cc(O)c21 [Example 56] |
| 68.2 to 70.1 °C | CC1=Cc2cc(O)c(O)cc2Sc2ccccc21 [Example 145] |
| > 250 °C (dec.) | O=C1Cc2cc(-c3cccc([N+](=O)[O-])c3)ccc2Sc2cc(O)cc(O)c21 [Example 80] |
| 209.7 to 212 °C | O=C1Cc2ccc(-c3ccccc3)cc2Sc2cc(O)cc(O)c21 [Example 87] |
| 161.6 to 163.9 °C | CSc1ccc2c(c1)CCc1c(O)cc(O)cc1S2 [Example 2, 8-Methylthio-10,11-dihydrodibenzo[b,f]thiepin-1,3-diol] |
| 194.2 to 196.1 °C | CC1(C)C(=O)c2cc(O)c(O)cc2Sc2ccccc21 [Example 31] |
| 173.8 to 175.8 °C | O=C(Cc1ccc2c(c1)CC(=O)c1c(O)cc(O)cc1O2)C1=CCCCC1 [Example 66] |
| 270.3 to 271.9 °C | CCC1C(=O)c2cc(O)c(O)cc2Sc2cc(-c3cccs3)ccc21 (stereo not drawn) [Example 155] |
| 163.5 to 165.8 °C | Cc1ccccc1-c1ccc2c(c1)Oc1cc(O)cc(O)c1C(=O)C2 [Example 72] |

| melting point | SMILES |
| --- | --- |
| 125.9 to 127.7 °C | O=C1Cc2ccc(CCc3ccccc3)cc2Oc2cc(O)cc(O)c21 [Example 51] |
| 125.2 to 126.9 °C | C[Si](C)(C)CCc1ccc2c(c1)CCc1c(O)cc(O)cc1O2 |
| 274 to 279 °C (dec.) | CC(=O)c1ccc(-c2ccc3c(c2)CC(=O)c2c(O)cc(O)cc2O3)cc1 [Example 65] |
| 183 to 184.7 °C | O=C1Cc2ccc(-c3cccc(C(F)(F)F)c3)cc2Oc2cc(O)cc(O)c21 [Example 73] |
| 180.3 to 191.6 °C | O=C1Cc2ccc(-c3cccc(Cl)c3)cc2Sc2cc(O)cc(O)c21 [Example 90] |
| 181.1 to 184.9 °C | Oc1cc(O)c2c(c1)Sc1ccc(Cl)cc1CC2 [Example 26] |
| 245.5 to 246.4 °C | CCC1C(=O)c2cc(O)c(O)cc2Sc2cc(-c3cccc(N)c3)ccc21 (stereo not drawn) [Example 176] |
| 175 to 177.5 °C | CCC1C(=O)c2c(O)cc(O)cc2Sc2ccccc21 (stereo not drawn) [Example 38] |
| 212.6 to 215.7 °C | O=C1Cc2cc(-c3ccc(O)cc3O)ccc2Oc2cc(O)cc(O)c21 [Example 77] |
| 110.7 to 112.4 °C | CCON=C(C)c1ccc2c(c1)CCc1c(O)cc(O)cc1S2 [Example 139] |
| 213.7 to 214.7 °C | Oc1cc(O)c2c(c1)Sc1ccc(-c3ccco3)cc1CC2 [Example 127] |
| 214.3 to 215.3 °C | O=C1Cc2ccc(-c3cccs3)cc2Sc2cc(O)cc(O)c21 [Example 81] |
| 153.3 to 154.8 °C | OCCCc1ccc2c(c1)CCc1c(O)cc(O)cc1O2 [Example 103] |
| 188.3 to 191.4 °C | Oc1cc(O)c2c(c1)Oc1ccc(-c3cccs3)cc1CC2 [Example 111] |
| 217.9 to 221.6 °C | O=C1Cc2cc(Cl)ccc2Sc2cc(O)cc(O)c21 [Example 15] |
| 195.1 to 197.1 °C | Cc1ccc(-c2ccc3c(c2)Oc2cc(O)cc(O)c2CC3)cc1 [Example 112] |
| 157.6 to 157.9 °C | CCCC(=O)c1ccc2c(c1)CCc1c(O)cc(O)cc1O2 [Example 128] |
| 176.7 to 177.6 °C | CON=C(C)c1ccc2c(c1)CCc1c(O)cc(O)cc1S2 [Example 138] |
| > 250 °C (dec.) | O=C1Cc2ccc(I)cc2Sc2cc(O)cc(O)c21 [Example 8, 3-Iodo-7,9-dihydroxy-10,11-dihydrodibenzo[b,f]thiepin-10-one] |
| 257.9 to 259.9 °C | O=C1Cc2ccc(-c3cc4ccccc4o3)cc2Oc2cc(O)cc(O)c21 [Example 95] |
| 37.9 to 41.5 °C | CCC1=Cc2cc(O)c(O)cc2Sc2ccccc21 [Example 143] |

| melting point | SMILES |
| --- | --- |
| 211.8 to 217.3 °C | N#Cc1ccc2c(c1)CCc1c(O)cc(O)cc1O2 [Example 122] |
| 196.1 to 198.5 °C | Oc1cc(O)c2c(c1)Sc1cc(-c3cccs3)ccc1CC2 [Example 123] |
| 239.1 to 242.6 °C | O=C1Cc2ccc(-c3ccc(O)cc3O)cc2Oc2cc(O)cc(O)c21 [Example 100] |
| 159 to 160.3 °C | CCC(=O)c1ccc2c(c1)CCc1c(O)cc(O)cc1O2 [Example 10, 8-Propionyl-10,11-dihydrodibenz[b,f]oxepin-1,3-diol] |
| 227.6 to 228.1 °C | O=C1Cc2ccc(-c3cccs3)cc2Oc2cc(O)cc(O)c21 [Example 5, 3-(2-Thiophene)-7,9-dihydroxy-10,11-dihydrodibenz[b,f]oxepin-10-one] |
| 135.6 to 137.6 °C | CCCCCCc1ccc2c(c1)CCc1c(O)cc(O)cc1O2 |
| 235.6 to 237.4 °C | CCC1C(=O)c2cc(O)c(O)cc2Sc2ccc(Br)cc21 (stereo not drawn) [Example 44] |
| 169.1 to 174.9 °C | Oc1cc(O)c2c(c1)Oc1cc(CCc3ccccc3)ccc1CC2 [Example 108] |
| 228.4 to 235.2 °C | Cc1ccc(-c2ccc3c(c2)Sc2cc(O)cc(O)c2C(=O)C3)cc1 [Example 86] |
| 141.2 to 141.7 °C | O=C(c1ccc2c(c1)CCc1c(O)cc(O)cc1S2)C1CCC1 [Example 134] |
| 236.4 to 237.3 °C | O=C1Cc2cc(Br)ccc2Sc2cc(O)cc(O)c21 [Example 13] |
| 109.7 to 111.9 °C | CCC1C(=O)c2cc(O)c(O)cc2Sc2cc(-c3cccc(C(F)(F)F)c3)ccc21 (stereo not drawn) [Example 156] |
| 190.8 to 195.3 °C | O=C1Cc2cc(-c3ccccc3)ccc2Sc2cc(O)cc(O)c21 [Example 78] |
| 228.3 to 230 °C | Nc1cccc(-c2ccc3c(c2)Oc2cc(O)cc(O)c2C(=O)C3)c1 [Example 74] |
| 174 to 175 °C | Cc1ccc(-c2ccc3c(c2)CC(=O)c2c(O)cc(O)cc2O3)cc1 [Example 60] |
| 190 to 191.6 °C | CC1C(=O)c2ccc(O)cc2Sc2ccccc21 (stereo not drawn) [Example 41] |
| 208 to 213.7 °C | ON=C1Cc2ccccc2Oc2cc(O)cc(O)c21 [Example 24] |
| 216.8 to 219.1 °C | CCC1C(=O)c2cc(O)c(O)cc2Sc2cc(-c3ccc(OC(F)(F)F)cc3)ccc21 (stereo not drawn) [Example 169] |
